The source of these data is paper PMC4913735, “Non‐glycosidic compounds can stimulate both human and mouse iNKT cells” (European Journal of Immunology, 2016).

Assay [1] addresses human iNKT‐cell TCR (Homo sapiens, UniProt A0A0B4J240+P15813). In words: SPR (BIAcore) binding of soluble human iNKT‐cell TCR to hCD1d/lipid complexes. Conditions: for Kd: SPR equilibrium binding, hCD1d refolded with lipid, read-out: K d, human iNKT‐cell TCR binding to hCD1d/lipid complex; for koff: SPR kinetics experiment, read-out: k off, human iNKT‐cell TCR from hCD1d/lipid complex. How it is done: Two analogs of ThrCer, ThrCer 6, and ThrCer 7 were synthesized. […] We first carried out measurements to assess the binding affinity of these ThrCer analogs to human iNKT‐cell TCR (Fig. 1B). Recombinant human CD1d (hCD1d) molecules were refolded in vitro with ThrCer 6 and ThrCer 7 separately and coupled to BIAcore chips, over which refolded human iNKT‐cell TCR was injected at different concentrations 34. […] Importantly, these findings were consistent with data obtained using tetrameric human iNKT‐cell TCRs as a staining reagent to identify lipid/CD1d complexes on the surface of C1R cells that had been transfected with hCD1d cDNA (hCD1d C1R cells) and subsequently loaded with the different lipids 34 (Fig. 1C).
(§1) Soluble human invariant TCR was generated as previously described 34 where both the Vα24 and Vβ11 chains were individually overexpressed in Escherichia coli, purified from the inclusion bodies, then refolded, and purified to generate the TCR heterodimers, according to Boulter et al. 43. The murine TCR was generated according to Pellici et al. as a chimeric molecule (with variable murine regions and human constant regions) 44. The hybrid alpha chains and beta chains were individually expressed in E. coli and purified from the inclusion bodies, then refolded as above.
(§2) SPR experiments were performed with a BIAcore 3000 to measure the affinity and kinetics of iNKT‐cell TCR binding to human CD1d–ligand complexes. In brief, approximately 1000 RU of the biotinylated hCD1d–lipid complexes were immobilized onto streptavidin‐coated CM5 sensor chips (BIAcore). Aliquots of purified TCR with increasing concentrations were passed over immobilized hCD1d–lipid complex at a flow rate of 10 μL/min for the equilibrium‐binding experiments or 50 μL/min for the kinetics experiments. The dissociation constants, K d, were calculated by fitting the data from the equilibrium‐binding experiment to a non‐linear regression saturation binding model (GraphPad Prism 5.0), whereas the k off data were estimated from the kinetics experiments by fitting the data with the built‐in models of the BIAeval3.1 software (BIAcore).
(In general: In SPR one partner is held on a chip, and binding of the other changes the refractive index at the surface.)

Assay [2] has as its target murine Vα14/Vβ8 iNKT‐cell TCR (Mus musculus, UniProt P11609+Z9CWY5XBV8). In words: SPR binding of soluble murine iNKT‐cell TCR to mCD1d/lipid complexes. Conditions: for Kd: SPR equilibrium binding, mCD1d loaded with lipid, read-out: K d, murine iNKT‐cell TCR binding to mCD1d/lipid complex.
Text: In order to extend the analysis of the ability of ThrCer analogs to activate iNKT‐cells in vivo, we assessed their ability to promote a response in a murine model. First, we performed binding assays using in vitro‐loaded murine recombinant CD1d (mCD1d) molecules and in vitro‐refolded murine Vα14/Vβ8 iNKT‐cell TCR.
as §1, §2

The test system of assay [3] is hCD1d C1R cells. In words: Tetrameric human iNKT‐cell TCR staining of lipid‐loaded hCD1d C1R cells (flow cytometry). In kind it is cell-based. The settings on record: compared with α‐GalCer; overnight incubation. How it is done:
Two analogs of ThrCer, ThrCer 6, and ThrCer 7 were synthesized. […] We first carried out measurements to assess the binding affinity of these ThrCer analogs to human iNKT‐cell TCR (Fig. 1B). Recombinant human CD1d (hCD1d) molecules were refolded in vitro with ThrCer 6 and ThrCer 7 separately and coupled to BIAcore chips, over which refolded human iNKT‐cell TCR was injected at different concentrations 34. […]
Figure 1 ThrCer 6 and ThrCer 7 are potent human iNKT‐cell agonists and display a prolonged interaction with the iNKT‐cell TCR when in complex with human CD1d molecules. […] (B) Equilibrium binding and kinetics measurements of a soluble human iNKT‐cell TCR were assessed for hCD1d molecules refolded with α‐GalCer, ThrCer, ThrCer 6, and ThrCer 7. K d values (μM) were calculated from equilibrium binding. […] After incubating overnight, the degree of iNKT‐cell recognition, assessed either (C) by using a tetrameric human iNKT‐cell TCR by flow cytometry or (D) by the addition of human iNKT cells to cultures and determining the amount of IFN‐γ released in supernatant by ELISA. (E) Human DC maturation was assessed following coculture with human iNKT cells and l μg lipids after 40 h, as determined by CD86 upregulation on DC by flow cytometry. […]
A general note: In flow cytometry, cells or beads pass a laser one at a time.

In assay [4] the test system is EG7 cells (OVA‐expressing EL4). In words: Injection of OVA plus iNKT‐cell agonist in EG7 tumor‐bearing mice. In kind it is in vivo. Conditions: 1 μg lipid i.v. with OVA, 4 days after EG7 s.c.; for OVA‐specific CD8+ T cells in blood (tetramer) in tumor‐bearing mice: bled 7 days later. The procedure:
To test the functional consequences of iNKT‐cell‐induced DC maturation (Fig. 1E and Supporting Information Fig. 1) and to assess whether iNKT‐cell activation mediated by the injection of either ThrCer 6 or ThrCer 7 could lead to cross‐presentation of peptides derived from soluble antigenic proteins, mice were injected with the tumor cell line EL4 encoding the full‐length OVA and then 4 days later were immunized i.v. with full‐length OVA together with 1 μg of non‐glycosidic iNKT‐cell agonists. As a control, mice were injected with α‐GalCer with full‐length OVA. Seven days later, OVA‐specific CD8^+ T‐cells were detected in the blood by H‐2 K^b/OVA257–264 tetramer staining of CD8^+ T cells.
Figure 4 Injection of ThrCer 6 with OVA into tumor‐bearing mice results in tumor regression. Mice (n = 4–6) were injected s.c. with OVA‐expressing EL4 cells (EG7 cells). Four days later mice were injected i.v. with OVA protein together with either vehicle or 1 μg of the indicated iNKT‐cell agonist. (A) Seven days later mice were bled and the number of H‐2K^b 257‐264 tetramer^+ cells was assessed by FACS analysis. (B) The size of the tumor was subsequently measured regularly using calipers and expressed as surface area. The arrow indicates the timing of the injection of soluble OVA plus iNKT‐cell agonists. (A and B) Data are shown as mean ± SEM and are representative of two independent experiments.
Mice (n = 4–6) were injected subcutaneously (s.c.) with 1 × 10^6 EG7 cells (a derivative of the thymoma EL4, expressing the OVA protein). Four days later mice were injected i.v. with 800 μg OVA together with either vehicle or 1 μg of the indicated iNKT‐cell agonist. Seven days later mice were bled and the number of H‐2K^b 257–264 tetramer^+ cells was assessed by FACS analysis. The size of the tumor was subsequently measured regularly using calipers and expressed as surface area.

Sequence of human iNKT‐cell TCR (P01848 1-93): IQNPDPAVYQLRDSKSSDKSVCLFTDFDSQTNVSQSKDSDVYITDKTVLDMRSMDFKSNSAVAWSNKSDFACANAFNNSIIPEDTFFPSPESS
Sequence of human iNKT‐cell TCR (P61769 21-119, further chain): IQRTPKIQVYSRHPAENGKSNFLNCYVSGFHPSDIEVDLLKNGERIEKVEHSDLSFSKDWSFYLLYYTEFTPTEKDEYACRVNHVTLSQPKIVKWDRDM
Sequence of human iNKT‐cell TCR (A0A0B4J240 22-114): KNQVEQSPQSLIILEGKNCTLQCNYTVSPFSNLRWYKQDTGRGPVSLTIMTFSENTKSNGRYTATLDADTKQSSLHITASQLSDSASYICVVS
Sequence of human iNKT‐cell TCR (P01850 1-129, further chain): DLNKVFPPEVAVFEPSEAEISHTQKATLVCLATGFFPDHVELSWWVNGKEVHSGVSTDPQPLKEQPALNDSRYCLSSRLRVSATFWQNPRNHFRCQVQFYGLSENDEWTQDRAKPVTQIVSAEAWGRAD
Sequence of human iNKT‐cell TCR (P15813 20-301): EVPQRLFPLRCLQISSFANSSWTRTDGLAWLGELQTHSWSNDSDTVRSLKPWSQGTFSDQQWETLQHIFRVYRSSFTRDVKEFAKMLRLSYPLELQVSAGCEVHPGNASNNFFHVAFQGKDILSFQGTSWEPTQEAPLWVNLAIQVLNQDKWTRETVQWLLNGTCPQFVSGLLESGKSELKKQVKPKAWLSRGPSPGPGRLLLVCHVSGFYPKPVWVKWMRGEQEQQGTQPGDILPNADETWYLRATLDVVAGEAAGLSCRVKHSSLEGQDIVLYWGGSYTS
Sequence of murine Vα14/Vβ8 iNKT‐cell TCR (P11609 whole entry, looked up, other chains not shown): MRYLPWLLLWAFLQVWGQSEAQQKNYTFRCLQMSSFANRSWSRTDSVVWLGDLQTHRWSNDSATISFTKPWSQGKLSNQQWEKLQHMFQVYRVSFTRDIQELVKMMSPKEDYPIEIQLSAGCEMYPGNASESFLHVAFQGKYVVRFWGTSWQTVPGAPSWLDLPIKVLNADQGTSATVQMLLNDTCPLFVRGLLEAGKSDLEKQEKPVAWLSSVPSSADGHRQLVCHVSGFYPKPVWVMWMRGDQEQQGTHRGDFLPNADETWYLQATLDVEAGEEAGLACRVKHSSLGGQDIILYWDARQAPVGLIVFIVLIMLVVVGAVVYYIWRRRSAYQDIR

For the molecule `CCCCCCCCCCCCCCCCCCCCCCCCCC(=O)N[C@@H](CO[C@H]1CC[C@H](O)[C@H](O)[C@H]1O)[C@H](O)[C@H](O)CCCCCCCCCCCCCC` [ThrCer 6], in assay [1], the Kd was found to be 610 ± 100 nM and the koff stood at 0.165 s⁻¹. For the same molecule, in assay [2], the “Koff, murine iNKT‐cell TCR from mCD1d/lipid complex” value (“Koff … from mCD1d/lipid complex” below) is 0.050 S^-1; the “Kon, murine iNKT‐cell TCR to mCD1d/lipid complex” value (shortened to “Kon … to mCD1d/lipid complex”) is recorded as 3.47 x10^4 M^-1 S^-1; the Kd is 1440 ± 130 nM. Further, the “Staining of lipid‐loaded hCD1d C1R cells by tetrameric human iNKT‐cell TCR” value in assay [3] was “enhanced staining”. Besides, in assay [4], the “Rejection of OVA‐expressing implanted tumors” value is “rejected” and the “OVA‐specific CD8+ T cells in blood (tetramer) in tumor‐bearing mice” value (from here on “OVA‐specific CD8+ T cells in blood”) was “peptide‐specific response”.
`CCCCCCCCCCCCCCCCCCCCCCCCCC(=O)NC(COC1CCCC(O)C(O)C1O)C(O)C(O)CCCCCCCCCCCCCC` (stereo not drawn) [ThrCer 7]: in assay [1], the Kd is 760 ± 80 nM and the koff turned out to be 0.142 s⁻¹. Further, in assay [2], the “Koff … from mCD1d/lipid complex” value is reported as 0.214 S^-1; the “Kon … to mCD1d/lipid complex” value is given as 8.39 x10^4 M^-1 S^-1; the Kd came to 2550 ± 170 nM. The “Staining of lipid‐loaded hCD1d C1R cells by tetrameric human iNKT‐cell TCR” value in assay [3] was “enhanced staining”. Moreover, in assay [4], the “OVA‐specific CD8+ T cells in blood” value is reported as “peptide‐specific response”.
In the case of `CCCCCCCCCCCCCCCCCCCCCCCCCC(=O)N[C@@H](CO[C@H]1O[C@H](CO)[C@H](O)[C@H](O)[C@H]1O)[C@H](O)[C@H](O)CCCCCCCCCCCCCC` [α‐GalCer, α‐galactosylceramide, reference compound], in assay [1], the Kd is 1120 ± 130 nM and the koff amounted to 0.41 s⁻¹. In addition, in assay [2], the “Koff … from mCD1d/lipid complex” value was determined as 0.059 S^-1; the “Kon … to mCD1d/lipid complex” value is recorded as 3.93 x10^4 M^-1 S^-1; the Kd was 1500 ± 160 nM. Moreover, the “OVA‐specific CD8+ T cells in blood” value in assay [4] is “peptide‐specific response”.
